Columns and labels:
CHIKV = CHIKV infection of HEK293T cells, plaque assay; assay type: cell-based; conditions: 5 μM, 24 h p.i.
Procedure: HEK293T cells were treated with 5 μM 4-HPR or 4-MPR for 2 h, then infected with CHIKV for 1 h (MOI of 0.1) in the absence of compound (FIG. 9A). Alternatively, HEK293T cells were infected with CHIKV for 1 h (MOI of 0.1) without pre-treating the cells with compound (FIG. 9B). In both instances, virus inoculums were removed, then fresh medium containing the indicated compound was added (FIG. 9A and FIG. 9B). Infectious virus titres were determined by plaque assay 24 h p.i. Data are the mean+standard deviation of one experiment performed in duplicate wells, represented as plaque forming units per ml (PFU/ml).

DENV-2 [1] = test: Delayed addition in DENV-2 infected Huh-7 cells, NS1 RNA by qPCR; assay type: cell-based
Procedure: To gain further insight into the mode of action of 4-HPR, the human liver carcinoma cell line, Huh-7 cells were infected with DENV-2 (MOI of 1), followed by delayed addition of drug diluent DMSO (DENV only), 7.5 μM 4-HPR, 7.5 μM 4-MPR or 10 μM NITD008 (a previously described adenosine nucleoside inhibitor), 12 h post infection. Cells were lysed at the indicated times, RNA was extracted by Trizol and analysed by qPCR with fold change in expression of NS1 calculated relative to the untreated control (FIG. 5B). Concurrently, culture medium was collected and viral titres determined by plaque assay (FIG. 5C).

[2] = tested on: West Nile virus, Kunjin strain (WNVKUN); test: West Nile virus (Kunjin strain) infection of Vero cells, plaque assay; assay type: cell-based; conditions: Vero cells
Procedure: FIG. 9C. Viral titre from a plaque assay conducted from Vero cells infected with West Nile virus (Kunjin strain; WNVKUN) after treatment with 10 μM 4-HPR for 4 h.

DENV-2 NS5 / IMPα/β = DENV-2 NS5 / IMPα/β (Dengue virus type 2, UniProt P14340); test: AlphaScreen binding of His6-NS5 to IMPα/β heterodimer; conditions: 3 nM His6-NS5, 10 nM IMPα/β, increasing concentrations of compound
Procedure: AlphaScreen®, a luminescent bead-based assay that measures direct protein-protein interactions, was used to examine the binding of 3 nM His6-NS5 to 10 nM IMPα/β (IMPα/β heterodimer containing biotinylated IMPβ1) in the presence of increasing concentrations of 4-HPR, 4-MPR or ATRA (FIG. 1A), or 4-oxo-4-HPR, 4-HPR or 4-MPR (FIG. 1B). Data are the mean±standard deviation (SD) of triplicate wells from a single typical experiment.
To investigate the specificity of 4-HPR inhibition of NS5-importin association, the binding of 30 nM His6-NS5 to 10 nM IMPα/β, (IMPα/β heterodimer containing biotinylated IMPβ1), 3 nM IMPαΔIBB (biotinylated IMPa with the IMPβ-binding domain removed), or 3 nM biotinylated IMPβ1, in the presence of increasing concentrations of 4-HPR, was investigated.

DENV-1 [3] = test: ADE-mediated DENV-1 infection of human PBMCs, plaque assay; assay type: cell-based; conditions: ADE-mediated DENV-1 infection, 48 h
Procedure: The antiviral activity of 4-HPR was investigated in the more physiologically relevant human system of peripheral blood mononuclear cells (PBMCs), a major target of DENV infection in humans.
PBMCs were prepared from a healthy donor buffy coat using a Ficoll gradient, prior to ADE-mediated DENV-1 infection (MOI of 10) in the presence of increasing concentrations of 4-HPR or 4-MPR, and infectious virus titres determined by plaque assay 48 h later.

DENV-2 [4] = test: Cell-based flavivirus immunodetection assay in BHK-21 cells, DENV-2; conditions: BHK-21 cells, 48 h p.i.
Procedure: (§1) To investigate this, BHK-21 cells were infected with DENV serotypes 1, 2, 3 or 4 (MOI of 0.3) for 1 h in the presence of 4-HPR or 4-MPR (concentrations as indicated in FIG. 6A). Virus inoculum was removed and fresh media containing the indicated compounds was added. Virus infection rates were determined 48 h p.i. using a cell-based flavivirus immunodetection assay. Briefly, cells were fixed and stained for DENV structural protein, E, followed by addition of Alexa Fluor 488 anti-mouse IgG. Viral antigen quantification was performed using Imagexpress. Data shown are representative of a single experiment

DENV-2 [5] = test: DENV-2 infectivity assay in Vero cells, viral RNA copies in culture medium by RT-PCR; assay type: cell-based; conditions: MOI of 1; for effect on DENV infection (viral RNA copies at 24 h p.i.): 10 μM compound
Procedure: To test the specificity of 4-HPR and 4-oxo-4-HPR for anti-DENV activity Vero cells were infected with DENV-2 with a multiplicity of infection (MOI) of 1, in the presence of drug diluent (untreated) or the indicated compounds (10 μM in FIG. 3A, or 10 μM or 5 μM as indicated in FIG. 3B) for 2 h, followed by removal of the virus/drug inoculums, and addition of fresh 2% FCS maintenance medium. At 24 h post infection (p.i.) the culture medium was collected and the viral RNA extracted using QIAamp viral RNA mini kit (Qiagen). Absolute RNA copies present in each sample were determined by Taqman One Step RT-PCR (Applied Biosystems), as an estimate of virus titre by extrapolation from a standard curve generated from in vitro transcribed DENV RNA. Data shown are the mean+standard error of the mean (SEM) for 3 (FIG. 3A) or 2 (FIG. 3B) independent experiments. Statistical analysis (Student's ttest) was performed using GraphPad Prism software.

DENV-1 [6] = test: Cell-based flavivirus immunodetection assay in BHK-21 cells, DENV-1; conditions: 48 h p.i.
Procedure: as §1

DENV-4 = test: Cell-based flavivirus immunodetection assay in BHK-21 cells, DENV-4; conditions: BHK-21 cells, 48 h p.i.
Procedure: as §1

DENV-3 = test: Cell-based flavivirus immunodetection assay in BHK-21 cells, DENV-3; conditions: 48 h p.i.
Procedure: as §1

SMILES: COc1ccc(NC(=O)/C=C(C)/C=C/C=C(C)/C=C/C2=C(C)CCCC2(C)C)cc1 [4-MPR, N-(4-methoxyphenyl) retinamide]
- reduction of infectious CHIKV produced (CHIKV; HEK293T cells pre-treated 2 h with compound): did not reduce CHIKV titres
- reduction of infectious CHIKV produced (CHIKV; HEK293T cells, compound added after infection): did not reduce CHIKV titres
- viral RNA levels (NS1 qPCR) (DENV-2 [1]; 7.5 μM added 12 h p.i., up to 60 h p.i.): viral RNA levels increased steadily until 60 h p.i.
- antiviral activity against WNVKUN [2]: no antiviral activity
- block of association of DENV-2 NS5 with IMPα/β (DENV-2 NS5 / IMPα/β): neither ATRA nor 4-MPR were able to disrupt association
- reduction of infectious virus titre in infected PBMCs (DENV-1 [3]): no reduction
- effect on replication of DENV serotype 2 (DENV-2 [4]): did not have any effect
- effect on DENV infection (viral RNA copies at 24 h p.i.) (DENV-2 [5]): no effect on DENV infection
- effect on replication of DENV serotype 1 (DENV-1 [6]): did not have any effect
- effect on replication of DENV serotype 4 (DENV-4): did not have any effect
- effect on replication of DENV serotype 3 (DENV-3): did not have any effect

SMILES: CC1=C(/C=C/C(C)=C/C=C/C(C)=C/C(=O)Nc2ccc(O)cc2)C(C)(C)CCC1=O [4-oxo-4-HPR, N-(4-hydroxyphenyl)-4-oxoretinamide]
- block of association of DENV-2 NS5 with IMPα/β (DENV-2 NS5 / IMPα/β): able to block association
- reduction in viral RNA copies at 24 h p.i. (DENV-2 [5]; 5 μM compound for 2 h during infection): 1 log

SMILES: CC1=C(/C=C/C(C)=C/C=C/C(C)=C\C(=O)O)C(C)(C)CCC1 [13-cis retinoic acid]
- effect on DENV infection (viral RNA copies at 24 h p.i.) (DENV-2 [5]): no effect on DENV infection

SMILES: CC1=C(/C=C/C(C)=C/C=C/C(C)=C/C(=O)O)C(C)(C)CCC1 [ATRA, all-trans retinoic acid]
- block of association of DENV-2 NS5 with IMPα/β (DENV-2 NS5 / IMPα/β): neither ATRA nor 4-MPR were able to disrupt association
- effect on DENV infection (viral RNA copies at 24 h p.i.) (DENV-2 [5]): no effect on DENV infection

SMILES: C#C[C@@]1(O)[C@H](O)[C@@H](CO)O[C@H]1n1ccc2c(N)ncnc21 [NITD008]
- viral RNA levels (NS1 qPCR) (DENV-2 [1]; 10 μM added 12 h p.i.): reduced RNA levels

SMILES: C/C(=C\c1ccc(C(=O)O)cc1)c1ccc2c(c1)C(C)(C)CCC2(C)C [arotinoid acid]
- effect on DENV infection (viral RNA copies at 24 h p.i.) (DENV-2 [5]): no effect on DENV infection

Reference: patent US11752116B2, “Method of viral inhibition” (priority 2013, dated 2023)
